The nature of data set [1]: Effect of polymer composition on release of dicloxacillin. Type of data set: physicochemical. The settings on record: HEMA-PC:LM 1:4 with 2 mole % 3-chloro-2-hydroxypropyl methacrylate vs example 3 polymer, FIG. 2. The source says:
The membrane formed based on a 1:4 copolymer of HEMA-PC and dodecylmethacrylate (LM) with 2 mole % of reactive monomer which is 3-chloro-2-hydroxypropyl methacrylate, was compared to the polymer crosslinked by diethylenically unsaturated monomer MBA used in example 3 above, to compare release rates to dicloxacillin, a medium molecular weight model drug.

Data set [2] can be described thus: Drug loading of HEMA-PC:HEMA:MMA:MBA crosslinked membrane. In kind it is physicochemical. The settings on record: HEMA-PC:HEMA:MMA:MBA copolymer swollen in aqueous drug solution, room temperature, over night. From the text:
The polymers including MBA were polymerised in situ to form crosslinked membranes. […] The crosslinked polymers were used to form “infinite slabs” type membranes, to simulate the coating on a stent. […] The loaded levels were established to be the following: […]

Data set [3] is described as follows: Loading and release from quater polymer membrane. The following applies: caffeine from aqueous, dipyridamole from 1:1 ethanol:water solution. In kind it is physicochemical.
Data set [4] is described as follows: Release from loaded membrane into water. In kind it is physicochemical. The following applies: HEMA-PC:HEMA:MMA:MBA membrane, FIG. 1.
Description: The profile of fractional release against square root of time for release into water (using the same equipment as example 2) are set out in FIG. 1.
Data set [5] in a line: Etoposide/polymer premix coated stents, loading and release. Type of data set: physicochemical. Here is the method:
In this example, rather than precoating the polymer according to reference Example 1, followed by loading of drug, a premix of drug and crosslinkable polymer is formed and coated onto a stent. The crosslinkable polymer is identical to that used in Reference Example 1, 0.932 g polymer being dissolved into a 1:1 ethanol:water (by volume) mixture (50 ml). […] The coated stents were cured overnight at a temperature in the range 50 to 70 C.
The amount of drug loaded into the stents was determined by elution into an ethanol:water 50:50 (volume) mixture. […] The amount of etoposide eluted into ethanol:water is in this range.
The release rate, from the results, for the stent coated with a polymer crosslinked in the presence of drug indicate that the release of drug may not be slowed down as compared to the alternative system, where precoated stents are contacted with a solution of drug.

The conditions of data set [6]: cited from earlier work.
A short description of data set [7]: Ex vivo human saphenous vein model, polymer/dipyridamole coated stents. Here is the method:
Palmaz-Schatz Stents (trade mark) were coated with a solution of the same polymer as used in Reference Example 1, dissolved in ethanol at 50 g/l concentration, also containing dipyridamole at 30 g/l concentration. Stents were dipped into the solution by hand, using several coating steps. The stents were then cured overnight at 70 C. in moist air.
The coated stents were tested in an ex vivo model using fresh human saphenous vein, previously washed in the same culture medium as is used in Example 16 above, in the ex vivo tests. The stents were delivered into veins, which were subsequently deposited into apparatus used in Example 16. The circulating liquid, and the vessel wall were analysed at 1, 6 or 24 hours to determine localisation of dipyridamole. […] Similarly, the level of dipyridamole remaining on the stent decreases from 1 hour to 24 hours. […] At this time, dipyridamole is concentrated in the section of the vein immediately surrounding the stent with lower levels in the vessel immediately adjacent those sections.

Consider `Cc1onc(-c2c(Cl)cccc2Cl)c1C(=O)N[C@@H]1C(=O)N2[C@@H]1SC(C)(C)[C@@H]2C(=O)O` [Dicloxacillin, dicloxacillin], for which the “release half life, polymer having hydrophobic groups versus MBA-crosslinked polymer” value in data set [1] was “much higher”. In addition, in data set [2], the “Loading (mg/g polymer)” value came to 32 mg/g polymer.

For `Cn1c(=O)c2c(ncn2C)n(C)c1=O` [Caffeine, caffeine], the “Loading (mg/g polymer)” value in data set [2] amounted to 80 mg/g polymer. In addition, in data set [3], the total loading turned out to be 28 mg/g polymer. The release into water result in data set [4] is “substantially total release after about an hour”. Under “coated stent swollen in aqueous caffeine 10 mg/ml”, the “level of drug per stent” value is “around 0.025 mg per stent”. Under “first 60 seconds”, the “share of loading released in the first 60 seconds” value is on record as “at least 80%”. The release times entry (release into aqueous medium, loaded from 10 mg/ml) is listed as “negligible”. For the setting “swelling solution 10% w/w caffeine”, the “loading levels or release half life versus 10 mg/ml loading” value is “No significant increase”.

With `COc1cc([C@@H]2c3cc4c(cc3[C@@H](O[C@@H]3O[C@@H]5CO[C@@H](C)O[C@H]5[C@H](O)[C@H]3O)[C@H]3COC(=O)[C@H]23)OCO4)cc(OC)c1O` [etoposide], the “time at which release plateaued” value in data set [5] (into 5 ml phosphate buffered saline) is reported as “around 5 minutes”. For the same molecule, the average etoposide loading result in data set [5] (premix coated stent, eluted into ethanol:water 50:50) is on record as “around 12 μg per stent”. The “solubility in water” value in data set [6] is “only slightly soluble in water”.

Take `OCCN(CCO)c1nc(N2CCCCC2)c2nc(N(CCO)CCO)nc(N3CCCCC3)c2n1` [Dipyridamole, dipyridamole]: the “Loading (mg/g polymer)” value in data set [2] was 32 mg/g polymer. Further, the “dipyridamole within the vessel wall” value in data set [7] (1, 6 or 24 hours) was “no dipyridamole could be seen within the vessel wall until twenty four hours after stent deployment”. Further, the “dipyridamole in the circulating medium” value in data set [7] (1 to 24 hours) is “can be detected in the circulating medium after one hour”. For the same molecule, the total loading in data set [3] was 18 mg/g polymer.

(Values after patent publication US7754272B2, “Local drug delivery” (Biocompatibles IK Limited, priority 1999, dated 2010).)
